melting point: 126.2 to 132.6 °C
Structure (SMILES): Cc1cc(OC[C@@H](C)c2sc(-c3ccc(C(F)(F)F)cc3)cc2C)ccc1CCC(=O)O (single isomer, unassigned) [Example 16, 3-(2-Methyl-4-{2-[3-methyl-5-(4-trifluoromethylphenyl)thiophen-2-yl]propoxy}-phenyl)propionic acid]

From patent US7504433B2, “Thiophene derivative PPAR modulators” (Eli Lilly and Company, priority 2003, dated 2009)
